Drawing on PubChem BioAssay (NCI), this text covers TGI and GI50 for 9 molecules.

Several values for one entry are separate records, joined by “and”; a condition that tells them apart may be missing. Equal values may be shown once.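 All cell lines were grown in 96-well plates and treated with compound for 48 hours. GI50 marks 50% less growth. TGI: concentration producing complete growth inhibition.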 Where only a bound is given, the exact number is not on record here.

Among the test systems are A549 NSCLC; MOLT-4 leukemia; OVCAR-3 ovarian; SF-268 CNS; SF-295 CNS; SK-MEL-5 melanoma; SK-OV-3 ovarian; SNB-75 CNS; TK-10 renal; UACC-62 melanoma.
Assay in all cases: NCI-60 cell line screen, 48 h

As for `CC1C(=O)C(C)C(c2ccccc2)N(N=O)C1c1ccccc1` (centres undefined), the TGI in the assay on A549 NSCLC is greater than 1000 µM; with MOLT-4 leukemia, greater than 1000 µM; with OVCAR-3 ovarian it was 685 µM; in the assay with SF-268 CNS it was 352 µM; in the assay with SF-295 CNS, 498 µM; with SK-MEL-5 melanoma, greater than 605 µM. Further, the TGI in the assay on SK-OV-3 ovarian was > 83.8 µM and 472 µM; in the assay with SNB-75 CNS it was 64.7 µM and 80.6 µM; in the assay on TK-10 renal, 640 µM; in the assay on UACC-62 melanoma, greater than 655 µM. Besides, the GI50 is 44 µM with SF-268 CNS, 181 µM with SF-295 CNS, 103 µM with SK-OV-3 ovarian and 27.2 µM in the assay on SNB-75 CNS.
Consider `COC(=O)CNC(=O)[C@@H](OC)[C@@H]1Cc2cc3cc(OC4CC(OC5CC(O)C(O)C(C)O5)C(O)C(C)O4)c(C)c(O)c3c(O)c2C(=O)[C@H]1OC1CC(OC2CC(OC3CC(C)(O)C(O)C(C)O3)C(O)C(C)O2)C(O)C(C)O1` (some centres undefined), for which the GI50 in the assay with A549 NSCLC is 0.183 µM; in the assay with MOLT-4 leukemia, 0.198 µM; in the assay with OVCAR-3 ovarian, 0.204 µM; with SF-268 CNS, 0.196 µM; with SF-295 CNS, 0.109 µM; in the assay on SK-MEL-5 melanoma, 0.084 µM. Moreover, the GI50 with SK-OV-3 ovarian is 0.444 µM; in the assay with SNB-75 CNS it was 0.127 µM; in the assay with TK-10 renal it was 0.402 µM; in the assay with UACC-62 melanoma, 0.0536 µM. The TGI in the assay with A549 NSCLC was greater than 50 µM; in the assay on MOLT-4 leukemia it was 3.35 µM; in the assay with OVCAR-3 ovarian it was 4.27 µM; in the assay on SF-268 CNS, greater than 50 µM; with SF-295 CNS, greater than 50 µM; with SK-MEL-5 melanoma, 0.538 µM. Besides, the TGI in the assay with SK-OV-3 ovarian was greater than 50 µM; in the assay with SNB-75 CNS, 0.9 µM; in the assay on TK-10 renal, greater than 50 µM; in the assay on UACC-62 melanoma, 0.26 µM.
Turning to `CCCCCCCCCc1cc(=O)c2ccc(O)cc2o1`, the TGI with A549 NSCLC, with MOLT-4 leukemia, with OVCAR-3 ovarian, in the assay with SF-268 CNS, in the assay with SF-295 CNS and with SK-MEL-5 melanoma was greater than 100 µM in each case. In addition, the TGI with SK-OV-3 ovarian was greater than 100 µM; with SNB-75 CNS it was 56.4 µM; in the assay with TK-10 renal, 91.3 µM; in the assay on UACC-62 melanoma, greater than 100 µM.
Take `COc1ccc2oc3cccc(NCCN(C)C)c3c(=O)c2c1`: the TGI with A549 NSCLC was found to be 28.2 µM; with MOLT-4 leukemia it was 12.7 µM; in the assay on OVCAR-3 ovarian it was 28.5 µM; with SF-268 CNS it was 28.3 µM; in the assay with SF-295 CNS it was 29.9 µM; in the assay on SK-MEL-5 melanoma, 30.9 µM. For the same molecule, the TGI in the assay on SK-OV-3 ovarian came to 28.7 µM; in the assay on SNB-75 CNS it was 31 µM; with TK-10 renal it was 28.2 µM; with UACC-62 melanoma it was 26.6 µM.
Regarding `COc1ccc2c(c1)OC(N(C(C)=O)C(C)=O)=C(C#N)C2c1ccc(F)cc1` (centres undefined), the GI50 in the assay with A549 NSCLC is 4.45 µM; in the assay with MOLT-4 leukemia it was 2.66 µM; with OVCAR-3 ovarian, 0.676 µM; in the assay with SF-268 CNS it was 9.47 µM; in the assay on SF-295 CNS, 2.83 µM; in the assay with SK-MEL-5 melanoma, 1.98 µM. Moreover, the GI50 in the assay with SK-OV-3 ovarian was 2.47 µM; with SNB-75 CNS, 1.28 µM; in the assay on TK-10 renal, 17.5 µM; with UACC-62 melanoma it was 0.632 µM. The TGI with A549 NSCLC was greater than 100 µM; in the assay on MOLT-4 leukemia it was greater than 100 µM; in the assay with OVCAR-3 ovarian, 7.5 µM; with SF-268 CNS, greater than 100 µM; in the assay on SF-295 CNS, greater than 100 µM; with SK-MEL-5 melanoma, 18.3 µM. Besides, the TGI with SK-OV-3 ovarian, with SNB-75 CNS, in the assay with TK-10 renal and with UACC-62 melanoma was greater than 100 µM in each case.
For `CN(C)C(=S)N=Nc1c(O)[nH]c2ccccc12`, the GI50 with A549 NSCLC was 0.465 µM; in the assay with MOLT-4 leukemia, 0.619 µM; with OVCAR-3 ovarian, 0.261 µM; with SF-268 CNS it was 0.593 µM; in the assay with SF-295 CNS, 0.315 µM; in the assay with SK-MEL-5 melanoma, 0.626 µM. Besides, the GI50 in the assay on SK-OV-3 ovarian is 0.79 µM; in the assay on SNB-75 CNS, 3.01 µM; with TK-10 renal it was 0.721 µM; with UACC-62 melanoma, 0.578 µM. In addition, the TGI in the assay on A549 NSCLC is 18.8 µM; with MOLT-4 leukemia, greater than 49.7 µM; in the assay with OVCAR-3 ovarian, 1.18 µM; in the assay on SF-268 CNS, 12.6 µM; with SF-295 CNS, 14.2 µM; with SK-MEL-5 melanoma, 12.5 µM. In addition, the TGI turned out to be 13.9 µM with SK-OV-3 ovarian, 18.5 µM with SNB-75 CNS, 14.7 µM with TK-10 renal and 4.56 µM in the assay with UACC-62 melanoma.
For the molecule `CC/C=C\C/C=C\C/C=C\CCCCCCCC(=O)OCC`, the TGI with A549 NSCLC, in the assay with MOLT-4 leukemia, in the assay with OVCAR-3 ovarian, in the assay with SF-268 CNS, in the assay with SF-295 CNS and in the assay on SK-MEL-5 melanoma was greater than 100 µM in each case. Moreover, the TGI with SK-OV-3 ovarian, in the assay on SNB-75 CNS, with TK-10 renal and in the assay with UACC-62 melanoma was greater than 100 µM throughout.
In the case of `CSc1nc2c(nc(N)n2C2OCC(O)C(O)C2O)c(=O)n1C` (centres undefined), the TGI with A549 NSCLC, in the assay with MOLT-4 leukemia, with OVCAR-3 ovarian, with SF-268 CNS, in the assay with SF-295 CNS and with SK-MEL-5 melanoma was greater than 100 µM each time. For the same molecule, the TGI in the assay with SK-OV-3 ovarian, in the assay on SNB-75 CNS, with TK-10 renal and with UACC-62 melanoma was greater than 100 µM each time.
Consider `CC(CNC(Cc1ccccc1)c1ccccc1)NC(Cc1ccccc1)c1ccccc1` (centres undefined), for which the GI50 in the assay on A549 NSCLC is 4.18 µM; with MOLT-4 leukemia, 2.06 µM; in the assay with OVCAR-3 ovarian, 2.07 µM; in the assay with SF-268 CNS, 3.6 µM; with SF-295 CNS, 1.52 µM; in the assay with SK-MEL-5 melanoma it was 1.79 µM. Besides, the GI50 is 5.34 µM in the assay with SK-OV-3 ovarian, 2.07 µM with SNB-75 CNS, 3.22 µM in the assay on TK-10 renal and 1.8 µM in the assay on UACC-62 melanoma. Moreover, the TGI in the assay with A549 NSCLC was 15 µM; in the assay with MOLT-4 leukemia, 6.03 µM; in the assay on OVCAR-3 ovarian, 4.56 µM; in the assay on SF-268 CNS it was 14.3 µM; in the assay with SF-295 CNS it was 3.27 µM; with SK-MEL-5 melanoma, 3.23 µM. Moreover, the TGI worked out at 16.8 µM with SK-OV-3 ovarian, 11.7 µM in the assay on SNB-75 CNS, 12.5 µM in the assay on TK-10 renal and 3.8 µM with UACC-62 melanoma.
